Among the data in PubChem BioAssay AID2060341 (Molecular Pharmacology Branch, DTP, NCI, 2025) are IC50 and viability, T/C values, retold here.

“And” between values parts separate entries of the source, which are not always exact repeats. Equal values may be shown once. A value given as a limit tells only on which side of the number the result lay.

The test system of the assay is 327498-153-R-J2-PDC multicell spheroid viability. Nature of the assay: Anticancer human tumor 327498-153-R-J2-PDC patient-derived uterine carcinosarcoma cell line growth inhibition [IpAb]. The note with it: for viability, T/C: stronger effect = lower value. In outline:
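Spheroids of 60% malignant cells, 25% HUVEC and 15% MSC were exposed to targeted agents combined with ipatasertib or abemaciclib. Doses started at or near clinical Cmax (10 microM when unknown) and fell in half-log steps.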

Setting [1] is: curve of first compound, second compound 0.1 µM.
Setting [2] is: curve of first compound, second compound 0.316 µM.
[3] abbreviates: curve of first compound, second compound 1 µM.
[4] abbreviates: curve of first compound, second compound 3.16 µM.
Where [5] appears, read: curve of first compound, second compound 10 µM.
[6] abbreviates: second compound 0.1 µM, first compound 0.0316 µM.
[7] abbreviates: second compound 0.1 µM, first compound 0.1 µM.
The mark [8] stands for this setting: second compound 0.1 µM, first compound 0.316 µM.
[9] abbreviates: second compound 0.1 µM, first compound 1 µM.
The mark [10] stands for this setting: second compound 0.1 µM, first compound 3.16 µM.
[11] abbreviates: second compound 0.1 µM, first compound 10 µM.
Where [12] appears, read: second compound 0.316 µM, first compound 0.0316 µM.
[13] abbreviates: second compound 0.316 µM, first compound 0.1 µM.
Where [14] appears, read: second compound 0.316 µM, first compound 0.316 µM.
Setting [15] is: second compound 0.316 µM, first compound 1 µM.
Where [16] appears, read: second compound 0.316 µM, first compound 3.16 µM.
The mark [17] stands for this setting: second compound 0.316 µM, first compound 10 µM.
Setting [18] is: second compound 1 µM, first compound 0.0316 µM.
[19] abbreviates: second compound 1 µM, first compound 0.1 µM.
Setting [20] is: second compound 1 µM, first compound 0.316 µM.
The mark [21] stands for this setting: second compound 1 µM, first compound 1 µM.
The mark [22] stands for this setting: second compound 1 µM, first compound 3.16 µM.
[23] abbreviates: second compound 1 µM, first compound 10 µM.
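Throughout, for viability, T/C: 100% = DMSO vehicle control viability.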

With `Cn1cnc2c(F)c(Nc3ccc(Br)cc3Cl)c(C(=O)NOCCO)cc21` + CC(C)NCC(C(=O)N1CCN(c2ncnc3c2C(C)CC3O)CC1)c1ccc(Cl)cc1, the IC50 (as a rule, the midpoint of a concentration-inhibition curve) reads like this: under setting [1], 427 nM; under setting [2], 61.2 nM; under setting [3], less than 9.49 nM; under setting [4], less than 9.49 nM; under setting [5], less than 9.49 nM. Besides, the viability, T/C (usually the ratio of treated to control) is 91.7% (second compound 0.1 µM, first compound 0.00949 µM); 69.9% (second compound 0.1 µM, first compound 0.03 µM); 66.2% (second compound 0.1 µM, first compound 0.0949 µM); 51.7% (second compound 0.1 µM, first compound 0.3 µM); 46.1% (second compound 0.1 µM, first compound 0.949 µM); 34.1% (second compound 0.1 µM, first compound 3 µM). In addition, the viability, T/C runs as follows: (second compound 0.316 µM, first compound 0.00949 µM) 60.2%; (second compound 0.316 µM, first compound 0.03 µM) 51.6%; (second compound 0.316 µM, first compound 0.0949 µM) 48%; (second compound 0.316 µM, first compound 0.3 µM) 41.9%; (second compound 0.316 µM, first compound 0.949 µM) 29.7%; (second compound 0.316 µM, first compound 3 µM) 20.6%. In addition, the viability, T/C was 41.9% (second compound 1 µM, first compound 0.00949 µM); 34.6% (second compound 1 µM, first compound 0.03 µM); 32.9% (second compound 1 µM, first compound 0.0949 µM); 28.9% (second compound 1 µM, first compound 0.3 µM); 20.4% (second compound 1 µM, first compound 0.949 µM); 11.5% (second compound 1 µM, first compound 3 µM). Moreover, the viability, T/C is, setting by setting: (second compound 3.16 µM, first compound 0.00949 µM) 33.8%; (second compound 3.16 µM, first compound 0.03 µM) 27.2%; (second compound 3.16 µM, first compound 0.0949 µM) 21%; (second compound 3.16 µM, first compound 0.3 µM) 21%; (second compound 3.16 µM, first compound 0.949 µM) 13.3%; (second compound 3.16 µM, first compound 3 µM) 7.22%. For the same molecule, the viability, T/C is 27.1% (second compound 10 µM, first compound 0.00949 µM); 22.4% (second compound 10 µM, first compound 0.03 µM); 16.3% (second compound 10 µM, first compound 0.0949 µM); 15.7% (second compound 10 µM, first compound 0.3 µM); 12.2% (second compound 10 µM, first compound 0.949 µM); 6.89% (second compound 10 µM, first compound 3 µM).

In the case of `Cn1cnc2c(F)c(Nc3ccc(Br)cc3Cl)c(C(=O)NOCCO)cc21`, the viability, T/C by setting is: (compound 0.00949 µM) 94% and 97.4%; (compound 0.03 µM) 86.6% and 73.7%; (compound 0.0949 µM) 85.2% and 77.9%; (compound 0.3 µM) 64.3% and 67.1%; (compound 0.949 µM) 69.9% and 51.7%; (compound 3 µM) 49.4% and 36.6%. The IC50 (curve of compound) was > 3000 nM and 1070 nM.

Turning to `Cc1nc(NC(=O)N2CCCC2C(N)=O)sc1-c1ccnc(C(C)(C)C(F)(F)F)c1` (centres undefined) + CCN1CCN(Cc2ccc(Nc3ncc(F)c(-c4cc(F)c5nc(C)n(C(C)C)c5c4)n3)nc2)CC1, the IC50 (curve of first compound, second compound 0.01 µM) came out at 6390 nM; the 50% inhibitory concentration (IC50) (curve of first compound, second compound 0.0316 µM) was found to be 1040 nM; the IC50 under setting [1] is 442 nM; the IC50 under setting [2] is 262 nM; the IC50 under setting [3] came out at 150 nM. Also, the viability, T/C is 91.6% (second compound 0.01 µM, first compound 0.0316 µM); 85.8% (second compound 0.01 µM, first compound 0.1 µM); 77% (second compound 0.01 µM, first compound 0.316 µM); 68.2% (second compound 0.01 µM, first compound 1 µM); 63% (second compound 0.01 µM, first compound 3.16 µM); 42.5% (second compound 0.01 µM, first compound 10 µM). In addition, the viability, T/C is 69.7% (second compound 0.0316 µM, first compound 0.0316 µM); 69.3% (second compound 0.0316 µM, first compound 0.1 µM); 63.3% (second compound 0.0316 µM, first compound 0.316 µM); 46.4% (second compound 0.0316 µM, first compound 1 µM); 41.3% (second compound 0.0316 µM, first compound 3.16 µM); 27.3% (second compound 0.0316 µM, first compound 10 µM). Also, the viability, T/C under setting [6] is 61.8%; the viability, T/C under setting [7] is 58.5%; the viability, T/C under setting [8] was 50.4%; the viability, T/C under setting [9] is 46%; the viability, T/C under setting [10] is 36.9%; the viability, T/C under setting [11] is 26%. The viability, T/C is 58% under setting [12]; 57.2% under setting [13]; 47.8% under setting [14]; 42.6% under setting [15]; 35.3% under setting [16]; 28.1% under setting [17]. In addition, the viability, T/C is, setting by setting: under setting [18], 54%; under setting [19], 55.7%; under setting [20], 43.5%; under setting [21], 41.1%; under setting [22], 34.8%; under setting [23], 25.9%.

For the molecule `C=CCn1c(=O)c2cnc(Nc3ccc(N4CCN(C)CC4)cc3)nc2n1-c1cccc(C(C)(C)O)n1` + CC(C)NCC(C(=O)N1CCN(c2ncnc3c2C(C)CC3O)CC1)c1ccc(Cl)cc1, the IC50 reads like this: under setting [1], 259 nM; under setting [2], 151 nM; under setting [3], 101 nM; under setting [4], less than 31.6 nM; under setting [5], less than 31.6 nM. The viability, T/C reads like this: under setting [6], 90.3%; under setting [7], 83.2%; under setting [8], 43.2%; under setting [9], 3.61%; under setting [10], 3.91%; under setting [11], 6.69%. Further, the viability, T/C runs as follows: under setting [12], 73.8%; under setting [13], 65.2%; under setting [14], 22.6%; under setting [15], 3.04%; under setting [16], 3.47%; under setting [17], 6.17%. Moreover, the viability, T/C runs as follows: under setting [18], 49.6%; under setting [19], 50.5%; under setting [20], 17.3%; under setting [21], 3.25%; under setting [22], 2.88%; under setting [23], 5.72%. Moreover, the viability, T/C was 45.1% (second compound 3.16 µM, first compound 0.0316 µM); 35.2% (second compound 3.16 µM, first compound 0.1 µM); 11.5% (second compound 3.16 µM, first compound 0.316 µM); 3.53% (second compound 3.16 µM, first compound 1 µM); 3.4% (second compound 3.16 µM, first compound 3.16 µM); 4.64% (second compound 3.16 µM, first compound 10 µM). Further, the viability, T/C (second compound 10 µM, first compound 0.0316 µM) is 30.4%; the viability, T/C (second compound 10 µM, first compound 0.1 µM) is 27.4%; the viability, T/C (second compound 10 µM, first compound 0.316 µM) is 8.25%; the viability, T/C (second compound 10 µM, first compound 1 µM) is 3%; the viability, T/C (second compound 10 µM, first compound 3.16 µM) was 3.44%; the viability, T/C (second compound 10 µM, first compound 10 µM) was 4.49%.

With `Cn1ncnc1[C@H]1c2n[nH]c(=O)c3cc(F)cc(c23)N[C@@H]1c1ccc(F)cc1`, the viability, T/C is, setting by setting: (compound 0.000316 µM) 109% and 99%; (compound 0.001 µM) 106% and 99.6%; (compound 0.00316 µM) 99.2% and 92.1%; (compound 0.01 µM) 74.8% and 65.7%; (compound 0.0316 µM) 47.8% and 39%; (compound 0.1 µM) 26.5% and 21.4%. The IC50 (curve of compound) is 28 nM and 19.6 nM.
